Values quoted from earlier work, collected in PMC6851324, “Design and development of stapled transmembrane peptides that disrupt the activity of G-protein–coupled receptor oligomers” (The Journal of Biological Chemistry, 2019).
Where no end group is shown, it is not given here.

System: 5-HT2AR–CB1R heteromers
Design: method as in 2 sources, ref 16 = [16]; PMID 26158621; doi:10.1371/journal.pbio.1002194; 16. Viñals X. , Moreno E. , Lanfumey L. , Cordomí A. , Pastor A. , de La Torre R. , Gasperini P. , Navarro G. , Howell L. A. , Pardo L. , Lluís C. , Canela E. I. , McCormick P. J. , Maldonado R. , and ||| ref 4, unpublished observations
Conditions: synthetic TM-mimicking peptides fused to HIV-TAT; cited from earlier work

Sequence | disruption of 5-HT2AR–CB1R heteromers (previous studies)
ETYLMFWIGVTSVLLLFIVYAYMYILWGRKKRRQRRR [TM5-TAT, reference compound] | selectively disrupted
GRKKRRQRRRKTLVLILVVLIICWGPLLAIMVY [TM6-TAT, reference compound] | selectively disrupted
